Assays:
Type in all cases: in vivo
crabgrass = test: Test Example 3: weedkilling efficacy through soil treatment; D: crabgrass; settings: soil treatment, treatment dosage 315 g/ha
From the text: (§1) Weedkilling Efficacy Test Through Soil Treatment
(§2) Sterilized diluvial soil was introduced into 21 cm long, 13 cm wide, 7 cm deep plastic boxes, and seeds of crabgrass, green foxtail, barnyard grass, wild oat, black-grass, Italian ryegrass, common wind-grass, Indian mallow, redroot pigweed, fig-leafed goosefoot, chickweed, catchweed, birds-eye speedwell, corn, soybean, rice, wheat, beet and rapeseed were each spot-sown, and covered with about 1.5 cm of soil. Next, emulsions of compounds of the present invention prepared according to compounding example 2 were diluted with water to give the specified dosages, and applied uniformly onto the soil surface with a small sprayer. The plants were grown by placing the plastic boxes in a greenhouse at 25 to 30° C., and 3 weeks after the pesticide treatment the effect on each type of plant was investigated on the basis of the assessment criteria of test example 1.
(§3) A: barnyard grass, B: bulrush, C: oval-leafed pondweed, D: crabgrass, E: green foxtail, F: barnyard grass, G: wild oat, H: black-grass, I: Italian ryegrass, J: common wind-grass, K: Indian mallow, L: redroot pigweed, M: fig-leafed goosefoot, N: chickweed, O: catchweed, p: birds-eye speedwell, a: transplanted rice, b: directly sown rice, c: corn, d: soybean, e: wheat, f: beet, g: rapeseed
(§4) Further, pesticide dosage (g/ha) indicates the concentration regulated such that treatment was with only the stated number of grams (g), when calculated per hectare (ha).

bulrush [1] = test: Test Example 2: weedkilling efficacy, growth period weed treatment in the submerged state; B: bulrush; settings: treatment dosage 252 g/ha
In short: (§5)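 Weeds treated at the 1-2 leaf stage by application of diluted emulsion onto floodwater (4 cm depth, alluvial soil) at specified g/ha. Grown in greenhouse at 25 to 30° C; herbicidal effect rated three weeks after treatment.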

beet = test: Test Example 3: soil treatment, effect on crop; f: beet; settings: soil treatment, treatment dosage 315 g/ha
From the text: as §1, §2, §3, §4

wheat = test: Test Example 3: soil treatment, effect on crop; e: wheat; settings: soil treatment, treatment dosage 315 g/ha
From the text: as §1, §2, §3, §4

wild oat = test: Test Example 3: weedkilling efficacy through soil treatment; G: wild oat; settings: soil treatment, treatment dosage 315 g/ha
From the text: as §1, §2, §3, §4

barnyard grass [2] = test: Test Example 2: weedkilling efficacy, growth period weed treatment in the submerged state; A: barnyard grass; settings: treatment dosage 252 g/ha
In short: as §5

oval-leafed pondweed [3] = test: Test Example 2: weedkilling efficacy, growth period weed treatment in the submerged state; C: oval-leafed pondweed; settings: treatment dosage 252 g/ha
In short: as §5

transplanted rice = test: Test Example 1: preemergent weed treatment in the submerged state, effect on crop; a: transplanted rice; settings: treatment dosage 252 g/ha
In short: (§6)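 Pre-emergence application onto floodwater (4 cm, alluvial soil) on the day of sowing, dose expressed as g/ha from diluted emulsion formulation. Weeds sown with 2.5-leaf transplanted rice as crop; plants held at 25–30 °C in greenhouse and scored against assessment criteria after 3 weeks.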

Indian mallow = test: Test Example 3: weedkilling efficacy through soil treatment; K: Indian mallow; settings: soil treatment, treatment dosage 315 g/ha
From the text: as §1, §2, §3, §4

corn = test: Test Example 3: soil treatment, effect on crop; c: corn; settings: soil treatment, treatment dosage 315 g/ha
From the text: as §1, §2, §3, §4

soybean = test: Test Example 3: soil treatment, effect on crop; d: soybean; settings: soil treatment, treatment dosage 315 g/ha
From the text: as §1, §2, §3, §4

fig-leafed goosefoot = test: Test Example 3: weedkilling efficacy through soil treatment; M: fig-leafed goosefoot; settings: soil treatment, treatment dosage 315 g/ha
From the text: as §1, §2, §3, §4

Italian ryegrass = test: Test Example 3: weedkilling efficacy through soil treatment; I: Italian ryegrass; settings: soil treatment, treatment dosage 315 g/ha
From the text: as §1, §2, §3, §4

directly sown rice = test: Test Example 3: soil treatment, effect on crop; b: directly sown rice; settings: soil treatment, treatment dosage 315 g/ha
From the text: as §1, §2, §3, §4

black-grass = test: Test Example 3: weedkilling efficacy through soil treatment; H: black-grass; settings: soil treatment, treatment dosage 315 g/ha
From the text: as §1, §2, §3, §4

oval-leafed pondweed [4] = test: Test Example 1: weedkilling efficacy, preemergent weed treatment in the submerged state; C: oval-leafed pondweed; settings: treatment dosage 252 g/ha
In short: as §6

bulrush [5] = test: Test Example 1: weedkilling efficacy, preemergent weed treatment in the submerged state; B: bulrush; settings: treatment dosage 252 g/ha
In short: as §6

green foxtail = test: Test Example 3: weedkilling efficacy through soil treatment; E: green foxtail; settings: soil treatment, treatment dosage 315 g/ha
From the text: as §1, §2, §3, §4

barnyard grass [6] = test: Test Example 1: weedkilling efficacy, preemergent weed treatment in the submerged state; A: barnyard grass; settings: treatment dosage 252 g/ha
In short: as §6

redroot pigweed = test: Test Example 3: weedkilling efficacy through soil treatment; L: redroot pigweed; settings: soil treatment, treatment dosage 315 g/ha
From the text: as §1, §2, §3, §4

chickweed = test: Test Example 3: weedkilling efficacy through soil treatment; N: chickweed; settings: soil treatment, treatment dosage 315 g/ha
From the text: as §1, §2, §3, §4

Row | SMILES | D: crabgrass, weedkilling efficacy grade (crabgrass) | B (bulrush) weedkilling efficacy grade (bulrush [1]) | f: beet, effect on crop grade (beet) | e: wheat, effect on crop grade (wheat) | G: wild oat, weedkilling efficacy grade (wild oat) | A (barnyard grass) weedkilling efficacy grade (barnyard grass [2]) | C (oval-leafed pondweed) weedkilling efficacy grade (oval-leafed pondweed [3]) | a: transplanted rice, effect on crop grade (transplanted rice) | K: Indian mallow, weedkilling efficacy grade (Indian mallow) | c: corn, effect on crop grade (corn) | d: soybean, effect on crop grade (soybean) | M: fig-leafed goosefoot, weedkilling efficacy grade (fig-leafed goosefoot) | I: Italian ryegrass, weedkilling efficacy grade (Italian ryegrass) | b: directly sown rice, effect on crop grade (directly sown rice) | H: black-grass, weedkilling efficacy grade (black-grass) | C: oval-leafed pondweed, weed kill grade (oval-leafed pondweed [4]) | B: bulrush, weed kill grade (bulrush [5]) | E: green foxtail, weedkilling efficacy grade (green foxtail) | A: barnyard grass, weed kill grade (barnyard grass [6]) | L: redroot pigweed, weedkilling efficacy grade (redroot pigweed) | other results
1 | Cc1cnc(NC(=O)C(C)(C)N2COCN(c3ccccc3)C2=O)s1 [A-1-08] | 5 (weed kill ratio 90% or more, (practically complete withering)) | 5 (weed kill ratio 90% or more, (practically complete withering)) | 0 (weed kill ratio 5% or less (practically no effect)) | 0 (weed kill ratio 5% or less (practically no effect)) | 3 (weed kill ratio 40% or more, less than 70%) | 4 (weed kill ratio 70% or more, less than 90%) | 3 (weed kill ratio 40% or more, less than 70%) | 0 (weed kill ratio 5% or less (practically no effect)) | 1 (weed kill ratio 5% or more, less than 20%) | 1 (weed kill ratio 5% or more, less than 20%) | 0 (weed kill ratio 5% or less (practically no effect)) | 2 (weed kill ratio 20% or more, less than 40%) | 4 (weed kill ratio 70% or more, less than 90%) | 4 (weed kill ratio 70% or more, less than 90%) | 5 (weed kill ratio 90% or more, (practically complete withering)) | 5 (weed kill ratio 90% or more, (practically complete withering)) | 5 (weed kill ratio 90% or more, (practically complete withering)) | 5 (weed kill ratio 90% or more, (practically complete withering)) | 5 (weed kill ratio 90% or more, (practically complete withering)) | 4 (weed kill ratio 70% or more, less than 90%) | N: chickweed, weedkilling efficacy grade (chickweed): 2 (weed kill ratio 20% or more, less than 40%)
2 | Cc1cc(NC(=O)C(C)(C)N2COCN(c3ccccc3)C2=O)sn1 [A-1-10] | 4 (weed kill ratio 70% or more, less than 90%) | 5 (weed kill ratio 90% or more, (practically complete withering)) | 4 (weed kill ratio 70% or more, less than 90%) | 0 (weed kill ratio 5% or less (practically no effect)) | 0 (weed kill ratio 5% or less (practically no effect)) | 0 (weed kill ratio 5% or less (practically no effect)) | 0 (weed kill ratio 5% or less (practically no effect)) | 0 (weed kill ratio 5% or less (practically no effect)) | 3 (weed kill ratio 40% or more, less than 70%) | 0 (weed kill ratio 5% or less (practically no effect)) | 0 (weed kill ratio 5% or less (practically no effect)) | 4 (weed kill ratio 70% or more, less than 90%) | 4 (weed kill ratio 70% or more, less than 90%) | 0 (weed kill ratio 5% or less (practically no effect)) | 2 (weed kill ratio 20% or more, less than 40%) | 3 (weed kill ratio 40% or more, less than 70%) | 5 (weed kill ratio 90% or more, (practically complete withering)) | 4 (weed kill ratio 70% or more, less than 90%) | 3 (weed kill ratio 40% or more, less than 70%) | 4 (weed kill ratio 70% or more, less than 90%) | N: chickweed, weedkilling efficacy grade (chickweed): 0 (weed kill ratio 5% or less (practically no effect))

Reference: patent US9738634B2, “Heterocyclic amide compound and herbicide” (SYNGENTA PARTICIPATIONS AG, priority 2013, dated 2017)
